Assay results taken from ChEMBL document CHEMBL1127646, “Mechanism-based isocoumarin inhibitors for blood coagulation serine proteases. Effect of the 7-substituent in 7-amino-4-chloro-3-(isothioureidoalkoxy)isocoumarins on inhibitory and anticoagulant potency” (J Med Chem, 1994).
Peptide text beside a SMILES is read from it. * marks the point of attachment. Dansyl = CN(C)c1cccc2c(S(=O)(=O)*)cccc12; CH2Cl = ClC*

Tests used:
[1] = molecular target: Prothrombin (Homo sapiens) (UniProt P00734); assay: Inhibition of human thrombin (inhibitor concentration 1.2-54 uM)
Prothrombin (Bos taurus) = Prothrombin (Bos taurus) (UniProt P00735); assay: Inhibition of bovine thrombin (inhibitor concentration 1.2-54 uM)
[2] = Hydrolysis half life (t1/2); format: ADME
[3] = molecular target: Coagulation factor X (Homo sapiens) (UniProt P00742); assay: Inhibition of human factor Xa (inhibitor concentration were 3.6-44 uM)
Chain of Coagulation factor X (Homo sapiens) (P00742 41-179 limits assumed): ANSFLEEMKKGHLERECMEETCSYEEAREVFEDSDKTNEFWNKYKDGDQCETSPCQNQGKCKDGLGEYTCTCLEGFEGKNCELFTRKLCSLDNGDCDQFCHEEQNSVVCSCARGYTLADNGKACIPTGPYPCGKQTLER
Chain of Coagulation factor X (Homo sapiens) (P00742 235-488 limits assumed): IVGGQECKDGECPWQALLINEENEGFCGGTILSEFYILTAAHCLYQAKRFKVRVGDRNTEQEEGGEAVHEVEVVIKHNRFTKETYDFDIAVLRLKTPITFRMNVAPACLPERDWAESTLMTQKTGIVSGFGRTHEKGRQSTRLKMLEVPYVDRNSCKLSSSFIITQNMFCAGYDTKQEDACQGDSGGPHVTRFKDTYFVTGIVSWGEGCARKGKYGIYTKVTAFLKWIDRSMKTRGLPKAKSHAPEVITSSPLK

[4] = Anticoagulant activity was determined in Ortho-activated thrombofax (APTT) assay at a dose 9.4 uM in human dead plasma; format: functional
[5] = Anticoagulant activity was determined in Ortho-activated thrombofax (APTT) assay at a dose 31 uM in human dead plasma; format: functional
[6] = molecular target: T1, Coagulation factor VII (Homo sapiens) (UniProt P08709); assay: Inhibition of human coagulation factor VII at 7.2-44 uM
T1 sequence (whole entry): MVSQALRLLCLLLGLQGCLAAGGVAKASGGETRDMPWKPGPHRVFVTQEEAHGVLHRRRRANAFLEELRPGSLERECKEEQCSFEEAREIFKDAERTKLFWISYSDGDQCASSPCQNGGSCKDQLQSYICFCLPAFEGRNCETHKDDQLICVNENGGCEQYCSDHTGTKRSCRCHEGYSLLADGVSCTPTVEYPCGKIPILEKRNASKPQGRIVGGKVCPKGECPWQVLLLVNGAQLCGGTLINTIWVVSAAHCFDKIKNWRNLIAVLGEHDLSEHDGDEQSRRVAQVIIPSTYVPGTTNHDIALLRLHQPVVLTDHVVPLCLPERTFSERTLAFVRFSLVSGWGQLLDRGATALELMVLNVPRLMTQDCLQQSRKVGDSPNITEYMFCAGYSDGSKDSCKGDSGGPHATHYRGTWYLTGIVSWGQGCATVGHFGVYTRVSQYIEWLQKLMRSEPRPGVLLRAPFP

[7] = molecular target: T2, Coagulation factor III (Sus scrofa) (UniProt Q6RCS8); assay: Anticoagulant activity in PT assay at a dose 32 uM
T2 sequence (whole entry): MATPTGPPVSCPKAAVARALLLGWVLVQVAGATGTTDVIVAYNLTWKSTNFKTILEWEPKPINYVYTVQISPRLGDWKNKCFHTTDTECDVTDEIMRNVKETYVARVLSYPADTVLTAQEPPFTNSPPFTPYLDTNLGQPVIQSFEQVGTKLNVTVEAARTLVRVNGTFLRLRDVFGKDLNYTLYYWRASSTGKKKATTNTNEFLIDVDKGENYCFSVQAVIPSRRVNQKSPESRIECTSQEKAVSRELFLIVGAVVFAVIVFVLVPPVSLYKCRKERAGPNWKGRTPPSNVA

[8] = Anticoagulant activity was determined in Ortho-activated thrombofax (APTT) assay at a dose 32 uM in pig plasma; format: functional, Sus scrofa
[9] = molecular target: Coagulation factor IX (Homo sapiens) (UniProt P00740); assay: Inhibition of porcine factor IXa at 8.3-82 uM; conditions: Sus scrofa, target entry is the homologue from another species
[10] = molecular target: Tissue factor (Homo sapiens) (UniProt P13726); assay: Anticoagulant activity in PT assay at a dose of 31 uM
Chain of Tissue factor (Homo sapiens) (P13726 whole entry): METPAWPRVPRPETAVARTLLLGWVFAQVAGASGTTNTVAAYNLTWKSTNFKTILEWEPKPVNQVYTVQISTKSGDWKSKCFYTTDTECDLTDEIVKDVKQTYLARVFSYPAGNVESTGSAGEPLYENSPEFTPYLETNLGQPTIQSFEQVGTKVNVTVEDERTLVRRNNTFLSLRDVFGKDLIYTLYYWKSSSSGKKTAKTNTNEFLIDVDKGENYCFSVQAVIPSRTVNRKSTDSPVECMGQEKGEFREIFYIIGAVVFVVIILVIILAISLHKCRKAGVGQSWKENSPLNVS

[11] = molecular target: T3, Coagulation factor XII (Homo sapiens) (UniProt P00748); assay: Inhibition of human coagulation factor XII (inhibitor concentration were 3.6-4.9 uM)
T3 sequence (whole entry): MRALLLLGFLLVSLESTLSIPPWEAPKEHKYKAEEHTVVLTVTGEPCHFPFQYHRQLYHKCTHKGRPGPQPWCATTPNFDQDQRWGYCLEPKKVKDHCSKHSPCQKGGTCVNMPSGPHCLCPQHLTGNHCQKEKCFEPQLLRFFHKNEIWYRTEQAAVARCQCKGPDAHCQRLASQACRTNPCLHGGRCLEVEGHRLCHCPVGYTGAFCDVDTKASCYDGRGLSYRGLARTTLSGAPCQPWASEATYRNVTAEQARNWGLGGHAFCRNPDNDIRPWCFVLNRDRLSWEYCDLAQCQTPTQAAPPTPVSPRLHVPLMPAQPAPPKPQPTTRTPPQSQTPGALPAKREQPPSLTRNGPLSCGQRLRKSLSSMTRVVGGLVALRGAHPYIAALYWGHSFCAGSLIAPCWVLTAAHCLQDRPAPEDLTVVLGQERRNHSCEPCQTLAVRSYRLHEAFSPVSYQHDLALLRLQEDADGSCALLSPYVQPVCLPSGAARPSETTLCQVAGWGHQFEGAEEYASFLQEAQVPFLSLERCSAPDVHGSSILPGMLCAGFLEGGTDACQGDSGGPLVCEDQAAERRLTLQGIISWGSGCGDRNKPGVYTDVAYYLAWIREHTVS

[12] = molecular target: Coagulation factor XI (Homo sapiens) (UniProt P03951); assay: Compound was evaluated for inhibition of enzyme human coagulation factor XI (inhibitor concentration were 0.7-0.8 uM)
Chain of Coagulation factor XI (Homo sapiens) (P03951 19-387 limits assumed): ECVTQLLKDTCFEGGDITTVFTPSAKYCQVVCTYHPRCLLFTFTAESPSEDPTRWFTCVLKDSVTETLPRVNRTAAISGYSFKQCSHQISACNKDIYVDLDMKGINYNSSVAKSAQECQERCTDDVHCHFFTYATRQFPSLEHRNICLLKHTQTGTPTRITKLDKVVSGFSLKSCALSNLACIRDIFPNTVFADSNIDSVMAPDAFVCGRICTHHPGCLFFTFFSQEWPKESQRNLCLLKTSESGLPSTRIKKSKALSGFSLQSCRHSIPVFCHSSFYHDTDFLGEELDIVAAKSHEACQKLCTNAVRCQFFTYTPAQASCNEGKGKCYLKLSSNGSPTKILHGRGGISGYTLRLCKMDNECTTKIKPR
Chain of Coagulation factor XI (Homo sapiens) (P03951 388-625 limits assumed): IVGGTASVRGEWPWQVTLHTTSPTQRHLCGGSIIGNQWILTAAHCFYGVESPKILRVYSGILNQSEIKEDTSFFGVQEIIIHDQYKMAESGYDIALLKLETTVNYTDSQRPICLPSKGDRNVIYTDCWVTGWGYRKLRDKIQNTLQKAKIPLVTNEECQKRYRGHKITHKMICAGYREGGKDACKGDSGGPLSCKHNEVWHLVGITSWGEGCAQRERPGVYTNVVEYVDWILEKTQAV

| Structure (SMILES) | K obs / 1 [1] | K obs / 1 (Prothrombin (Bos taurus)) | half-life [2] | K obs / 1 [3] | APTT [4] | APTT [5] | K obs / 1 [6] | PT [7] | APTT [8] | K obs / 1 [9] | PT [10] | K obs / 1 [11] | K obs / 1 [12] |
| --- | --- | --- | --- | --- | --- | --- | --- | --- | --- | --- | --- | --- | --- |
| N=C(N)SCCOc1oc(=O)c2cc(NC(=O)Nc3cccc4ccccc34)ccc2c1Cl | 5800 M⁻¹ s⁻¹ | 17500 M⁻¹ s⁻¹ | – | – | – | – | – | – | – | – | – | – | – |
| CC(C)(C)OC(=O)N[C@@H](Cc1ccccc1)C(=O)Nc1ccc2c(Cl)c(OCCCSC(=N)N)oc(=O)c2c1 | 230 M⁻¹ s⁻¹ | 190 M⁻¹ s⁻¹ | 51 min | – | – | – | – | – | – | – | – | – | – |
| CC(C)(C)OC(=O)N[C@H](Cc1ccccc1)C(=O)Nc1ccc2c(Cl)c(OCCSC(=N)N)oc(=O)c2c1 | 1140 M⁻¹ s⁻¹ | 1090 M⁻¹ s⁻¹ | 42 min | 1620 M⁻¹ s⁻¹ | – | – | – | – | – | – | – | – | – |
| C[C@H](NC(=O)Nc1ccc2c(Cl)c(OCCSC(=N)N)oc(=O)c2c1)c1ccccc1 | 21000 M⁻¹ s⁻¹ | 41300 M⁻¹ s⁻¹ | 56 min | – | 57.6 s | 111.2 s | 1830 M⁻¹ s⁻¹ | 30 s | >120 s | 3980 M⁻¹ s⁻¹ | – | – | – |
| N=C(N)SCCCOc1oc(=O)c2cc(NC(=O)[C@H](N)Cc3ccccc3)ccc2c1Cl | 470 M⁻¹ s⁻¹ | 400 M⁻¹ s⁻¹ | 46 min | – | – | – | – | – | – | – | – | – | – |
| C[C@H](NC(=O)OC(C)(C)C)C(=O)N[C@@H](C)C(=O)Nc1ccc2c(Cl)c(OCCSC(=N)N)oc(=O)c2c1 | 970 M⁻¹ s⁻¹ | 1530 M⁻¹ s⁻¹ | 40 min | – | – | – | – | – | – | – | – | – | – |
| CN(C)c1cccc2c(S(=O)(=O)N[C@@H](CCC(=O)O)C(=O)NCC(=O)N[C@@H](CCCN=C(N)N)C(=O)CCl)cccc12 (Dansyl-Glu-Gly-Arg-CH2Cl) | – | – | – | – | – | – | 20 M⁻¹ s⁻¹ | – | – | 180 M⁻¹ s⁻¹ | – | – | – |
| CC(=O)Nc1ccc2c(Cl)c(OCCCSC(=N)N)oc(=O)c2c1 | 310 M⁻¹ s⁻¹ | 420 M⁻¹ s⁻¹ | 68 min | – | – | – | – | – | – | – | – | – | – |
| CC(=O)CCC(=O)Nc1ccc2c(Cl)c(OCCSC(=N)N)oc(=O)c2c1 | 1770 M⁻¹ s⁻¹ | – | 28 min | – | – | >140 s | – | – | – | – | 42.5 s | – | – |
| CCOc1oc(=O)c2cc(NC(=N)N)ccc2c1Cl | – | 55000 M⁻¹ s⁻¹ | – | 11000 M⁻¹ s⁻¹ | – | – | 2200 M⁻¹ s⁻¹ | – | – | 2850 M⁻¹ s⁻¹ | – | 22000 M⁻¹ s⁻¹ | 60000 M⁻¹ s⁻¹ |
| N=C(N)SCCCOc1oc(=O)c2ccccc2c1Cl | – | 1400 M⁻¹ s⁻¹ | – | – | – | – | 450 M⁻¹ s⁻¹ | – | – | 90 M⁻¹ s⁻¹ | – | 27000 M⁻¹ s⁻¹ | 47000 M⁻¹ s⁻¹ |
| N=C(N)SCCCOc1oc(=O)c2cc(NC(=O)[C@@H](N)Cc3ccccc3)ccc2c1Cl | 220 M⁻¹ s⁻¹ | 180 M⁻¹ s⁻¹ | 42 min | – | – | – | – | – | – | – | – | – | – |
| N=C(N)SCCCOc1oc(=O)c2cc(NC(=O)Cc3ccccc3)ccc2c1Cl | 610 M⁻¹ s⁻¹ | 600 M⁻¹ s⁻¹ | 61 min | 610 M⁻¹ s⁻¹ | – | – | 610 M⁻¹ s⁻¹ | – | – | 610 M⁻¹ s⁻¹ | – | 610 M⁻¹ s⁻¹ | 610 M⁻¹ s⁻¹ |
| CC(C)(C)OC(=O)N[C@H](Cc1ccccc1)C(=O)Nc1ccc2c(Cl)c(OCCCSC(=N)N)oc(=O)c2c1 | 520 M⁻¹ s⁻¹ | 330 M⁻¹ s⁻¹ | 55 min | – | – | – | – | – | – | – | – | – | – |
| N=C(N)SCCOc1oc(=O)c2cc(NC(=O)[C@H](N)Cc3ccccc3)ccc2c1Cl | 1340 M⁻¹ s⁻¹ | 1280 M⁻¹ s⁻¹ | 21 min | 3770 M⁻¹ s⁻¹ | – | – | 4010 M⁻¹ s⁻¹ | – | – | 1590 M⁻¹ s⁻¹ | – | 107000 M⁻¹ s⁻¹ | – |
| N=C(N)SCCCOc1oc(=O)c2cc(NC(=O)CCc3ccccc3)ccc2c1Cl | 630 M⁻¹ s⁻¹ | 820 M⁻¹ s⁻¹ | 66 min | – | – | – | – | – | – | – | – | – | – |
| CC(C)(C)OC(=O)N[C@@H](Cc1ccccc1)C(=O)Nc1ccc2c(Cl)c(OCCSC(=N)N)oc(=O)c2c1 | 1090 M⁻¹ s⁻¹ | 1040 M⁻¹ s⁻¹ | 39 min | – | – | – | – | – | – | – | – | – | – |
| O=c1oc(Cl)c(Cl)c2ccccc12 | 10 M⁻¹ s⁻¹ | 25 M⁻¹ s⁻¹ | – | – | – | – | 31 M⁻¹ s⁻¹ | – | – | 10 M⁻¹ s⁻¹ | – | 64 M⁻¹ s⁻¹ | – |
| N=C(N)SCCOc1oc(=O)c2cc(NC(=O)NC(c3ccccc3)c3ccccc3)ccc2c1Cl | 7050 M⁻¹ s⁻¹ | – | 168 min | – | – | 121 s | – | – | – | – | 18.4 s | – | – |
| CC(C)NC(=O)Nc1ccc2c(Cl)c(OCCSC(=N)N)oc(=O)c2c1 | 5000 M⁻¹ s⁻¹ | 4100 M⁻¹ s⁻¹ | – | – | – | – | – | – | – | – | – | – | – |
| N=C(N)SCCCOc1oc(=O)c2cc(NC(=O)Nc3ccccc3)ccc2c1Cl | 1840 M⁻¹ s⁻¹ | 970 M⁻¹ s⁻¹ | 148 min | 50 M⁻¹ s⁻¹ | – | – | 720 M⁻¹ s⁻¹ | – | – | 110 M⁻¹ s⁻¹ | – | 7720 M⁻¹ s⁻¹ | – |
| N=C(N)SCCOc1oc(=O)c2cc(NC(=O)[C@@H](N)Cc3ccccc3)ccc2c1Cl | 3070 M⁻¹ s⁻¹ | 4240 M⁻¹ s⁻¹ | 18 min | 3070 M⁻¹ s⁻¹ | – | – | – | – | – | – | – | 82000 M⁻¹ s⁻¹ | – |
| N=C(N)SCCCOc1oc(=O)c2cc(NC(=O)NCc3ccccc3)ccc2c1Cl | 700 M⁻¹ s⁻¹ | 420 M⁻¹ s⁻¹ | 148 min | – | – | – | – | – | – | – | – | – | – |
| N=C(N)SCCOc1oc(=O)c2cc(NC(=O)NCc3ccccc3)ccc2c1Cl | 11700 M⁻¹ s⁻¹ | 16800 M⁻¹ s⁻¹ | – | 2340 M⁻¹ s⁻¹ | 60.1 s | 115.4 s | 1810 M⁻¹ s⁻¹ | 31.1 s | >120 s | 2320 M⁻¹ s⁻¹ | – | 45000 M⁻¹ s⁻¹ | 105000 M⁻¹ s⁻¹ |
| C[C@H](N)C(=O)N[C@@H](C)C(=O)Nc1ccc2c(Cl)c(OCCSC(=N)N)oc(=O)c2c1 | 880 M⁻¹ s⁻¹ | 1070 M⁻¹ s⁻¹ | – | 1490 M⁻¹ s⁻¹ | – | – | – | – | – | – | – | – | – |
| N=C(N)SCCOc1oc(=O)c2cc(NC(=O)Cc3ccccc3)ccc2c1Cl | 6730 M⁻¹ s⁻¹ | 15800 M⁻¹ s⁻¹ | – | 3630 M⁻¹ s⁻¹ | – | – | 1100 M⁻¹ s⁻¹ | – | – | 2620 M⁻¹ s⁻¹ | – | 59000 M⁻¹ s⁻¹ | – |
| N=C(N)SCCCOc1oc(=O)c2cc(N)ccc2c1Cl | 760 M⁻¹ s⁻¹ | 630 M⁻¹ s⁻¹ | 90 min | 60 M⁻¹ s⁻¹ | – | – | 430 M⁻¹ s⁻¹ | – | – | 80 M⁻¹ s⁻¹ | – | 6200 M⁻¹ s⁻¹ | 22000 M⁻¹ s⁻¹ |
